In patent US20060229433A1, “Modified antiviral peptides with increased activity and cell membrane affinity” (priority 2003, published 2006):
“And” between values parts separate entries of the source, which are not always exact repeats. Equal values may be shown once. Ends that are not written are not given here.

Assays:
Assay type in all cases: cell-based
[1] = system: HIV-1 NL 4-3; experiment: HIV-1 infection of C8166 cells (syncytia formation, p24 ELISA) with HIV-1 NL 4-3; conditions: for IC50: C8166 cells, HIV-1 subtype B NL 4-3, Table 3
Protocol: (§1) HIV-1 NL 4-3 isolate (Adachi et al., 1986; Barré-Sinoussi et al., 1983) and highly cytopathic Zairian HIV-1 NDK isolate (Ellrodt et al., 1984) was propagated in permissive CEM cells (Nara et al., 1987). Uninfected CEM and C8166 (Salahuddin et al., 1983) were maintained in RPMI 1640 (R10) with ultraglutamine (cambrex, Vervier, Belgium), penicillin (100 U/ml), streptomycin (100 μg/ml), and 10% heat-inactivated fetal calf serum (Cambrex).
(§2) Samples of 3×10^5/100 μL C8166 cells were preincubated in 96-well microtiter plates in culture medium containing various concentrations of peptide. After a 1 h treatment at 37° C., 100 μl of diluted viral solution of HIV-1 was added. The cells were exposed to the virus for 1 h at 37° C. at a multiplicity of infection of 1000 TCID50 per ml. The cells were washed three times and cultured at 3×10^5/ml of R10 with the treatment in 24-well plates incubated at 37° C. C8166 culture medium was replaced at Day-4 post-infection. The treatment was permanent before virus adsorption, during virus adsorption and after infection. Assays on C8166 cells have been performed at least twice and in duplicate. Toxicity was evaluated by daily cell count and trypan-blue exclusion assay. Infection of C8166 T-cells with HIV-1 was assessed by virus-induced cytopathic effects (syncytia formation) and by quantification of cell free p24 viral protein in the culture supernatants. Measurements of HIV-1 p24^gag concentration in the culture supernatants were achieved by ELISA (ALLIANCE® HIV-1 p24 kit, Perkin Elmer, life sciences, USA).

[2] = system: HIV-1 NL 4-3; experiment: Infection of human peripheral blood lymphocytes (PBL) with NL 4-3 strain, p24 ELISA; conditions: on PBL
Protocol: Peripheral blood lymphocytes from an HIV-1 negative donor were grown as described earlier, maintained in RPMI 1640 with ultraglutamine, supplemented with IL2 (20 μg/ml), penicillin (100 U/ml), streptomycin (100 μg/ml), and 10% heat-inactivated fetal calf serum. Cells were stimulated three days in the medium supplemented with phytohemagglutinin (20 U/ml PHA P, DIFCO, Detroit Mich.).
Samples of 10^6/100 μL PBL cells were preincubated in 96-well microtiter plates in culture medium containing various concentrations of peptides. After a 1 h treatment at 37° C., 100 μl of diluted viral solution of HIV-1 was added. The cells were exposed to the virus for 1 h at 37° C. at a multiplicity of infection of 1000 TCID50 per ml. The cells were washed three times and cultured at […] of medium with the treatment in 24-well plates incubated at 37° in culture medium with the peptides in 5% CO2. The treatment was permanent before virus adsorption, during virus adsorption and after infection. The PBL culture medium was replaced every 3-4 days during three weeks always in the presence of peptide. The cell viability was assessed by cell counts and trypan-blue exclusion assay. The viral production in the culture supernatant was quantified by p24 ELISA test, as described earlier. All the experiments have been done in blind-tests. Tests have been done in duplicate.

[3] = system: HIV-1 NL 4-3; experiment: HIV-1 infection of C8166 cells (syncytia formation, p24 ELISA) with HIV-1 NL 4-3; design: key: ++, +, (+), (+)− and − represent decreasing numbers of syncitia formed; ++, +, (+), (+)− and − represent decreasing numbers of syncitia formed; ++, +, (+), (+)− and − represent decreasing numbers of syncitia formed; ++, +, (+), (+)− and − represent decreasing numbers of syncitia formed; ++, +, (+), (+)− and − represent decreasing numbers of syncitia formed; conditions: Table 1
Protocol: as §1, §2

[4] = system: HIV-1 NL 4-3; experiment: as above; design: key: ++, +, (+), (+)− and − represent decreasing numbers of syncitia formed.; ++, +, (+), (+)− and − represent decreasing numbers of syncitia formed.; ++, +, (+), (+)− and − represent decreasing numbers of syncitia formed.; ++, +, (+), (+)− and − represent decreasing numbers of syncitia formed.; ++, +, (+), (+)− and − represent decreasing numbers of syncitia formed; conditions: Table 2
Protocol: as §1, §2

## GPGRAF [SPC3 monomer, GPGRAF, reference compound]
[1]
  IC50: > 10000 nM

## RQGYSPL [RL monomer, RQGYSPL, reference compound]
[1]
  IC50: 500 nM

## SPC3-(ε-aminocaproic acid) [S4]
[1]; Day 4, 0.5 μM, Table 1
  P 24: 43 pg/mL and 28 pg/mL
[1]; Day 4, 2 μM, Table 1
  P 24: 17 pg/mL and 14 pg/mL
[1]; Day 7, 0.5 μM, Table 1
  P 24: 19801 pg/mL and 25000 pg/mL
[1]; Day 7, 1 μM, Table 1
  P 24: 19801 pg/mL and 21640 pg/mL
[1]; Day 7, 2 μM, Table 1
  P 24: 17872 pg/mL and 24806 pg/mL
[1]; Day 7, 5 μM, Table 1
  P 24: 21120 pg/mL and 15674 pg/mL
[2]
  IC100: 0.5 µM
[3]; 0.5 μM
  Day 4 syncitia formed: −
  Day 5 syncitia formed: +
  Day 6 syncitia formed: +
  Day 7 syncitia formed: ++
[3]; 1 μM
  Day 4 syncitia formed: −
  Day 5 syncitia formed: +
  Day 6 syncitia formed: +
  Day 7 syncitia formed: ++
[3]; 2 μM
  Day 4 syncitia formed: −
  Day 5 syncitia formed: +
  Day 6 syncitia formed: +
  Day 7 syncitia formed: ++
[3]; 5 μM
  Day 4 syncitia formed: −
  Day 5 syncitia formed: +
  Day 6 syncitia formed: +
  Day 7 syncitia formed: ++

## SPC3-Kpam [S7]
[1]; Day 4, 5 μM, Table 2
  P 24: NEG
[4]; 1 μM
  Day 4 syncitia formed: (+)
  Day 5 syncitia formed: +
  Day 6 syncitia formed: ++
  Day 7 syncitia formed: ++
[4]; 5 μM
  Day 4 syncitia formed: −
  Day 5 syncitia formed: −
  Day 6 syncitia formed: − and +
  Day 7 syncitia formed: + and ++

## SPC3-Penetratin [S2]
[1]; Day 4, 0.5 μM, Table 1
  P 24: NEG
[1]; Day 4, 0.5 μM, Table 2
  P 24: 2 pg/mL
[1]; Day 4, 1 μM, Table 1
  P 24: NEG
[1]; Day 4, 1 μM, Table 2
  P 24: NEG
[1]; Day 4, 2 μM, Table 1
  P 24: NEG
[1]; Day 4, 5 μM, Table 1
  P 24: NEG
[1]; Day 7, 0.5 μM, Table 2
  P 24: 115 pg/mL and 91 pg/mL
[1]; Day 7, 1 μM, Table 1
  P 24: 181 pg/mL and 245 pg/mL
[2]
  IC100: 0.01 µM
[3]; 0.5 μM
  Day 4 syncitia formed: −
  Day 5 syncitia formed: −
  Day 6 syncitia formed: −
  Day 7 syncitia formed: +
[3]; 1 μM
  Day 4 syncitia formed: −
  Day 5 syncitia formed: −
  Day 6 syncitia formed: −
  Day 7 syncitia formed: −
[3]; 2 μM
  Day 4 syncitia formed: −
  Day 5 syncitia formed: −
  Day 6 syncitia formed: −
  Day 7 syncitia formed: −
[4]; 0.05 μM
  Day 4 syncitia formed: (+)
  Day 5 syncitia formed: + and ++
  Day 6 syncitia formed: ++
  Day 7 syncitia formed: ++
[4]; 0.1 μM
  Day 4 syncitia formed: (+)
  Day 5 syncitia formed: +
  Day 6 syncitia formed: +
  Day 7 syncitia formed: ++
[4]; 0.5 μM
  Day 4 syncitia formed: −
  Day 5 syncitia formed: −
  Day 6 syncitia formed: −
  Day 7 syncitia formed: (+) and +
[4]; 1 μM
  Day 4 syncitia formed: −
  Day 5 syncitia formed: −
  Day 6 syncitia formed: −
  Day 7 syncitia formed: −
